Measured values reported in PMC5760531, “Action Potential Recording and Pro-arrhythmia Risk Analysis in Human Ventricular Trabeculae” (Frontiers in Physiology, 2018).
“And” between values parts separate entries of the source, which are not always exact repeats. Equal values may be shown once.

Tests used:
[1] = human free (unbound) effective therapeutic plasma concentration used to calculate multiples; cited from earlier work
[2] = tested on: human ventricular trabeculae; assay: Action potential recording and pro-arrhythmic score analysis in human ventricular trabeculae (hVT); settings: for EAD induction: any testing concentration, 1 and 2 Hz;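 for all read-outs here: sharp microelectrode action potential recordings at 37°C in Tyrode-perfused trabeculae, 4 cumulative concentrations each applied 31 min, values averaged over last 30 APs, vehicle 0.1% DMSO as control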
[3] = 1Hz, c1-c4: 0.4-, 1.3-, 13-, 43-FOLD free ETPC (2.3µM)
[4] = 2Hz, c1-c4: 0.4-, 1.3-, 13-, 43-FOLD free ETPC (2.3µM)
[5] = average raw data, 1Hz, c2-c5: 0.4-, 1.3-, 13-, 43-FOLD free ETPC (2.3µM)
[6] = average raw data, 2Hz, c2-c5: 0.4-, 1.3-, 13-, 43-FOLD free ETPC (2.3µM)
[7] = 1Hz, c1-c4: 2-FOLD, 21-FOLD, 69-OLD, 207-FOLD free ETPC (0.145µM)
[8] = 2Hz, c1-c4: 2-FOLD, 21-FOLD, 69-OLD, 207-FOLD free ETPC (0.145µM)
[9] = average raw data, 1Hz, c2-c5: 2-FOLD, 21-FOLD, 69-OLD, 207-FOLD free ETPC (0.145µM)
[10] = average raw data, 2Hz, c2-c5: 2-FOLD, 21-FOLD, 69-OLD, 207-FOLD free ETPC (0.145µM)
[11] = initial 3 testing concentrations
[12] = 1Hz, c1-c4: 25-, 75-, 250-, 2500-FOLD free ETPC (0.0004µM)
[13] = 2Hz, c1-c4: 25-, 75-, 250-, 2500-FOLD free ETPC (0.0004µM)
[14] = average raw data, 1Hz, c2-c5: 25-, 75-, 250-, 2500-FOLD free ETPC (0.0004µM)
[15] = average raw data, 2Hz, c2-c5: 25-, 75-, 250-, 2500-FOLD free ETPC (0.0004µM)

In the case of `COc1ccccc1OCC(O)CN1CCN(CC(=O)Nc2c(C)cccc2C)CC1` (stereo not shown) [RANOLAZINE, Ranolazine], the “Free ETPC” value [1] is listed as 2.3 µM, the EADs incidence [2, 3] is listed as 0% and the “Refractoriness Escape incidence” value [2, 3] is listed as 0%. The EADs incidence [2, 4] was 0%, the “Refractoriness Escape incidence” value [2, 4] was 0% and the AMAX [2, 5] was 112 mV and 111 mV and 113 mV and 109 mV. The APD30 [2, 5] was 146 ms and 136 ms and 126 ms and 116 ms, the APD50 [2, 5] was 198 ms and 187 ms and 181 ms and 170 ms and the APD90 [2, 5] was 266 ms and 257 ms and 274 ms and 294 ms. For the same molecule, the Alternans [2, 5] was 0.34 and 0.37 and 0.39, the EADs [2, 5] was 0 and the ERP [2, 5] was 0.47 and 0.48 and 0.50 and 0.49. The “Max Dispersion” value [2, 5] was 1.65 and 1.42 and 1.45 and 1.75, the “Refractoriness Escape” value [2, 5] was 0 and the STV [2, 5] was 0.22 and 0.27 and 0.29 and 0.24. For the same molecule, the Triangulation [2, 5] was 121 and 148 and 178, the AMAX [2, 6] was 111 mV and 105 mV and the APD30 [2, 6] was 108 ms and 102 ms and 99 ms and 104 ms. The APD50 [2, 6] was 151 ms and 144 ms and 143 ms, the APD90 [2, 6] was 215 ms and 210 ms and 230 ms and 275 ms and the EADs [2, 6] was 0. For the same molecule, the ERP [2, 6] was 0.48 and 0.49 and 0.47, the “Refractoriness Escape” value [2, 6] was 0 and the Triangulation [2, 6] was 107 and 108 and 131 and 172.
In the case of `CC(CC(c1ccccc1)c1ccccc1)NC(C)(C)C` (stereo not shown) [TERODILINE, Terodiline], the “Free ETPC” value [1] is listed as 0.145 µM, the EADs incidence [2, 7] is listed as 0% and the “Refractoriness Escape incidence” value [2, 7] is listed as 0%. For the same molecule, the EADs incidence [2, 8] was 0%, the “Refractoriness Escape incidence” value [2, 8] was 0% and the STV ([2]; 2 Hz, first concentration) was 0.9. For the same molecule, the STV ([2]; 2 Hz, third concentration) was 2.2, the STV increase ([2]; 2 Hz, third versus first concentration) was 144% and the EAD induction [2] was “did not induce EAD”. For the same molecule, the AMAX [2, 9] was 111 mV and 110 mV and 108 mV and 102 mV, the APD30 [2, 9] was 151 ms and 142 ms and 126 ms and 113 ms and the APD50 [2, 9] was 200 ms and 192 ms and 178 ms and 164 ms. The APD90 [2, 9] was 270 ms and 268 ms and 293 ms, the “Beat Escape” value [2, 9] was 1 and the EADs [2, 9] was 0. The ERP [2, 9] was 0.44 and 0.45 and 0.48 and 0.49, the “Refractoriness Escape” value [2, 9] was 0 and the Triangulation [2, 9] was 119 and 126 and 144 and 180. For the same molecule, the AMAX [2, 10] was 109 mV and 108 mV and 106 mV and 100 mV, the APD30 [2, 10] was 115 ms and 108 ms and 100 ms and 104 ms and the APD50 [2, 10] was 157 ms and 150 ms and 140 ms and 151 ms. The APD90 [2, 10] was 225 ms and 223 ms and 228 ms and 276 ms, the “Beat Escape” value [2, 10] was 1 and the EADs [2, 10] was 0. The ERP [2, 10] was 0.45 and 0.47 and 0.48, the “Refractoriness Escape” value [2, 10] was 0 and the Triangulation [2, 10] was 110 and 115 and 128 and 172. For the same molecule, the “effect on amplitude of AP” value ([2]; especially at 30 μM) was “decreased the amplitude of AP”, the “change in APD90” value [2, 11] was “less than 10%” and the change in triangulation [2, 11] was at least 20%.
For `Cc1ccc(O)c([C@H](CCN(C(C)C)C(C)C)c2ccccc2)c1` [TOLTERODINE, Tolterodine], the “Free ETPC” value [1] is given as 0.0004 µM, the “Beat Escape incidence” value [2, 12] is given as 0% and the EADs incidence [2, 12] is given as 0%. For the same molecule, the “Refractoriness Escape incidence” value [2, 12] was 0%, the “Beat Escape incidence” value [2, 13] was 0% and the EADs incidence [2, 13] was 0%. The “Refractoriness Escape incidence” value [2, 13] was 0%, the EAD induction [2] was “did not induce EAD” and the AMAX [2, 14] was 110 mV and 113 mV and 107 mV and 112 mV. For the same molecule, the APD30 [2, 14] was 186 ms and 190 ms and 192 ms and 195 ms, the APD50 [2, 14] was 248 ms and 256 ms and 279 ms and 294 ms and the APD90 [2, 14] was 320 ms and 331 ms and 378 ms and 411 ms. For the same molecule, the Alternans [2, 14] was 0.39 and 0.41 and 0.53 and 0.63, the “Beat Escape” value [2, 14] was 0 and the EADs [2, 14] was 0. The ERP [2, 14] was 0.46 and 0.47 and 0.53 and 0.55, the “Max Dispersion” value [2, 14] was 2.33 and 1.97 and 2.80 and 2.90 and the “Refractoriness Escape” value [2, 14] was 0. For the same molecule, the STV [2, 14] was 0.32 and 0.28 and 0.38 and 0.40, the Triangulation [2, 14] was 134 and 141 and 186 and 215 and the AMAX [2, 15] was 107 mV and 113 mV and 106 mV. For the same molecule, the APD30 [2, 15] was 131 ms and 143 ms and 136 ms and 134 ms, the APD50 [2, 15] was 184 ms and 197 ms and 203 ms and 210 ms and the APD90 [2, 15] was 254 ms and 268 ms and 299 ms and 327 ms. The “Beat Escape” value [2, 15] was 0, the EADs [2, 15] was 0 and the ERP [2, 15] was 0.49 and 0.48 and 0.54 and 0.56. The “Max Dispersion” value [2, 15] was 2.38 and 2.93 and 4.08 and 4.05, the “Refractoriness Escape” value [2, 15] was 0 and the Triangulation [2, 15] was 123 and 126 and 163 and 193. The “effect on amplitude of AP” value ([2]; up to the highest testing concentration, 1 μM) was “negligible effects”.
